For experiment [1], the system named is rat neonatal cardiomyocytes. The experiment can be described thus: BVR, HO-2 and HO-1 protein levels in rat neonatal cardiomyocytes (western blot). It counts as cell-based. The protocol: (§1) Neonatal Rat Cardiomyocytes: Primary cultures of neonatal rat cardiomyocytes were prepared as described previously (Ding et al., “Functional Role of Phosphodiesterase 3 in Cardiomyocyte Apoptosis: Implication in Heart Failure,” Circulation 111:2469-2476 (2005) which is hereby incorporated by reference in its entirety). Briefly, fragmented ventricular tissue from 1-2 day old Sprague-Dawley rats was subjected to multiple rounds of enzymatic digestion with collagenase II (Worthington, Lakewood, N.J.). The cells were then collected by low speed centrifugation at 4° C. Non-myocytes were removed by two rounds of pre-plating the cells on culture dishes. The enriched cardiomyocytes were cultured in DMEM with 10% FBS and 10% horse serum. The day after cell adhesion, 10 μM cytosine 1-β-D-arabinofuranoside (Sigma, St. Louis, Mo.) was added to inhibit the growth of contaminating non-myocytes.
Plasmids and Constructs: Adenovirus for expression of an endogenous PKA inhibitor (PKA251 bp) was prepared as described previously (Ding et al., “Functional Role of Phosphodiesterase 3 in Cardiomyocyte Apoptosis: Implication in Heart Failure,” Circulation 111:2469-2476 (2005), which is hereby incorporated by reference in its entirety). Rat BVR and HO-2 siRNA were designed based on the human sequences (Miralem et al., “Small Interference RNA-Mediated Gene Silencing of Human Biliverdin Reductase, but not that of Heme Oxygenase-1, Attenuates Arsenite-Mediated Induction of the Oxygenase and Increases Apoptosis in 293A Kidney Cells,” J Biol Chem 280:17084-17092 (2005), which is hereby incorporated by reference in its entirety). The BVR targeting site is at nucleotides 94-114, and the HO-2 targeting site is at nucleotides 73-93, downstream of the start codon in each case. Oligonucleotides containing the sequence of a 21 nucleotide small interference RNA were synthesized as follows: BVR siRNA, 5′-GATCCCC ([…]) TTCAAGAG ([…]) TTTTTGGAAA (SEQ ID NO:61) and 5′-AGCTTTTCCAAAAA ([…]) TCTCTTGAA ([…]) GGG (SEQ ID NO:62; HO-2 siRNA, 5′-GATCCCC ([…]) TTCAAGAGA ([…]) TTTTTGGAAA (SEQ ID NO:63) and 3′-AGCTTTTCCAAAAA ([…]) TCTCTTGAA ([…]) GGG (SEQ ID NO:64). Complementary oligonucleotides were annealed, then ligated into pSuper-Retro vector (OligoEngine Co. Seattle, Wash.). E. coli clones containing the desired constructs were identified by restriction analysis and verified by DNA sequencing. The retroviral DNA vectors for generating BVR si-rRNA and […] were transfected into the HEK293A packaging cell line, and the supernatant containing the expressed si-rBVR or si-rHO-2 retrovirus was then titrated in NIH3T3 cells. Retrovirus expressing siRNA was used to infect cells at a multiplicity of infection of 4 plaque-forming units/cell. The plasmid pcDNA-hBVR has previously been described (Lerner-Marmarosh et al., “Human Biliverdin Reductase: A Member of the Insulin Receptor Substrate Family with Serine/Threonine/Tyrosine Kinase Activity,” Proc Natl Acad Sci US A 102:7109-7114 (2005), which is hereby incorporated by reference in its entirety); pcDNA-hHO2 was constructed by cloning the HO-2 open reading frame into pcDNA3. […]

For experiment [2], the system named is rat neonatal cardiomyocytes. The conditions noted are these: literature (Hu et al. 2006); cited from earlier work.
Experiment [3] has as its system rat neonatal cardiomyocytes. The experiment can be described thus: BVR, HO-2 and HO-1 mRNA in isoproterenol-stimulated cardiomyocytes (RT-PCR). The conditions noted are these: 10 μM isoproterenol. The class given is cell-based. The protocol:
as §1
Quantitative RT-PCR: Total RNA was isolated using Trizol reagent (Invitrogen). The first-strand cDNA synthesis and quantitative polymerase chain reaction (RT-PCR) were performed as previously described (Tudor et al., “Biliverdin Reductase is a Transporter of Haem into the Nucleus and is Essential for Regulation of HO-1 Gene Expression by Haematin,” Biochem J 413:405-416 (2008), which is hereby incorporated by reference in its entirety). The following primers were used for PCR analysis: […]
PCR products were resolved by electrophoresis and quantified by image analysis of stained gels.
The question of whether the increased synthesis of each protein required elevated levels of BVR and HO-2 mRNA was investigated by RT-PCR. […] HO-1 protein expression was not detected throughout the whole process of isoproterenol treatment up to 96 hours.

Setting [4] is: 10 μM isoproterenol, western blot.

A value given as a limit tells only on which side of the number the result lay.

As for `CC(C)NCC(O)c1ccc(O)c(O)c1` (stereo not drawn) [isoproterenol], the “time for which increased levels of both proteins (BVR, HO-2) remained stable” value in experiment [1] (10 μM isoproterenol) is listed as “up to 96 hours”. Besides, in experiment [1] (setting [4]), the “time by which BVR protein expression was elevated” value is ≤ 8 h, the “time by which HO-2 protein level began to increase” value is ≤ 12 h and the “time by which HO-2 protein level reached a plateau” value was ≤ 24 h. Further, the HO-1 protein expression entry in experiment [1] (isoproterenol treatment up to 96 hours) is given as “not detected”. Further, the cardiomyocyte apoptosis result in experiment [2] is given as “increases cardiomyocyte apoptosis”. For the same compound, in experiment [3], the “HO-2 mRNA content” value is recorded as “remained unchanged”, the “level of BVR mRNA” value is given as “increased” and the “level of HO-1 mRNA” value was “transient increase”.

The values above are taken from patent US20100303790A1, “USE OF BILIVERDIN REDUCTASE (BVR) AND BVR PEPTIDE FRAGMENTS TO TREAT CORONARY DISORDERS” (UNIVERSITY OF ROCHESTER, priority 2009, published 2010).
